Experimental data published in patent US20170204102A1, “AGRICULTURAL AGENT CONTAINING 2,5-DIKETOPIPERAZINE DERIVATIVE AS ACTIVE INGREDIENT” (NAPRO BIOTEC INC., priority 2010, published 2017).
Where two headings read alike, the source gives them in different places.

Legend:
[1] = tested on: Colletotrichum orbiculare; type: in vivo; conditions: cucumber; for Number of anthractic lesions in first leaf: control 12.5; for Number of anthractic lesions in second leaf: control 96.8
[2] = tested on: Pectobacterium carotovorum SCC1; experiment: Inhibition of soft rot lesion in cucumber leaf; type: in vivo
[3] = tested on: anthracnose-causing Colletotrichum orbiculare; type: in vivo; conditions: tobacco leaf, control 240.3
[4] = tested on: PR-1α promoter fused to the GUS gene; experiment: PR-1α-GUS activity in tobacco leaf; type: in vivo; conditions: control 54
Protocol: After adding 960 μL of stop buffer (0.2M sodium carbonate) to make 1 mL, fluorescence was measured using a TKO 100 fluorometer (Hoefer Scientific Instruments, USA).

Colletotrichum acutatum = experiment: Inhibition of anthracnose in red pepper fruit after soil drench; conditions: control 50
cucumber leaf = experiment: Promotion of growth of cucumber leaf; conditions: Cucumis sativus, read-out: Width of leaf
Protocol: Plant leaves were tested with test compounds by drenching. […] 3-5 days later, the width of the leaves was measured again to compare the growth of the leaves relative to the control group.

PDF1.2 gene = conditions: background art; cited from earlier work
[5] = tested on: Pectobacterium carotovorum SCC1; experiment: Inhibition of soft rot lesion in tobacco leaf; type: in vivo
PR-1 gene = conditions: background art; cited from earlier work
[6] = tested on: Pectobacterium carotovorum SCC1; experiment: Inhibition of naturally occurring soft rot in Chinese cabbage hydrocultured in summer; type: in vivo; conditions: for Appearance of soft rot: 20 ppm, sprayed, examined 1 week later, control 58
Source text: After spraying test compounds to hydrocultured Chinese cabbage, naturally occurring soft rot was examined 1 week later.

Row | Structure (SMILES) | Number of anthractic lesions in first leaf ([1]; 0.1 ppm) | Number of anthractic lesions in second leaf ([1]; 0.1 ppm) | Number of anthractic lesions in first leaf ([1]; 1 ppm) | Number of anthractic lesions in second leaf ([1]; 1 ppm) | Number of anthractic lesions in first leaf ([1]; 10 ppm) | Number of anthractic lesions in second leaf ([1]; 10 ppm) | Number of anthractic lesions in first leaf ([1]; 100 ppm) | Number of anthractic lesions in second leaf ([1]; 100 ppm) | Area of lesion ([2]; 1 ppm, Table 7, control 100) | Area of lesion ([2]; 10 ppm, Table 7, control 100) | Area of lesion ([2]; 100 ppm, Table 7, control 100) | Appearance of anthracnose (Colletotrichum acutatum; 1 ppm) | Appearance of anthracnose (Colletotrichum acutatum; 10 ppm) | Appearance of anthracnose (Colletotrichum acutatum; 100 ppm) | response vs control in vivo at 1 ppm (cucumber leaf) | response vs control in vivo at 10 ppm (cucumber leaf) | response vs control in vivo at 100 ppm (cucumber leaf) | Area of lesion ([5]; 1 ppm, Table 4, control 100) | Area of lesion ([5]; 10 ppm, Table 4, control 100) | Area of lesion ([5]; 100 ppm, Table 4, control 100) | other results
1 | CSC(=O)c1cccc2nnsc12 [BTH, benzo-1,2,3-thiadiazole-7-carbothioic acid S-methyl ester, reference compound] | 0.8 | 100.3 | 0.8 | 100.3 | 0.8 | 100.3 | 0.8 | 100.3 | 90% | 90% | 90% | 25% | 0% | 0% | 93.8% | 90.5% | 92% | 95% | 95% | 95% | Area of lesion ([2]; 1 ppm, Table 6, control 100): 100%; Area of lesion ([2]; 1 ppm, Table 8, control 100): 100%; Area of lesion ([2]; 10 ppm, Table 6, control 100): 100%; Area of lesion ([2]; 10 ppm, Table 8, control 100): 100%; Area of lesion ([2]; 100 ppm, Table 6, control 100): 100%; Area of lesion ([2]; 100 ppm, Table 8, control 100): 100%; Number of anthractic lesions ([3]; 1 ppm): 58.3; PR-1α-GUS activity ([4]; 1 ppm): 21,015 nM MU/10 mg/h; Induction of expression of the PDF1.2 gene (PDF1.2 gene): does not induce the expression; Area of lesion ([5]; 1 ppm, Table 3, control 87.5): 52.5%; Area of lesion ([5]; 1 ppm, Table 5, control 73.75): 50%; Area of lesion ([5]; 10 ppm, Table 3, control 87.5): 52.5%; Area of lesion ([5]; 10 ppm, Table 5, control 73.75): 50%; Area of lesion ([5]; 100 ppm, Table 3, control 87.5): 52.5%; Area of lesion ([5]; 100 ppm, Table 5, control 73.75): 50%; Induction of expression of the PR-1 gene (PR-1 gene): induces the expression of the PR-1 gene
2 | CC(C)C1NC(=O)C2CCCN2C1=O (stereo not drawn) [Compound No. 26, 3-isopropylhexahydropyrrolo[1,2-a]pyrazin-1,4-dione] | – | – | – | – | – | – | – | – | – | – | – | – | – | – | 112% | 128% | 129% | – | – | – | Number of anthractic lesions ([3]; 0.1 ppm): 67.1; Number of anthractic lesions ([3]; 1 ppm): 63.3; PR-1α-GUS activity ([4]; 0.1 ppm): 34,967 nM MU/10 mg/h; PR-1α-GUS activity ([4]; 1 ppm): 27,497 nM MU/10 mg/h
3 | CCC(C)C1NC(=O)C2CCCN2C1=O (stereo not drawn) [Compound No. 28, 3-(1-methylpropyl)hexahydropyrrolo[1,2-a]pyrazin-1,4-dione] | 5.3 | 55.3 | 2.3 | 62.3 | 12.3 | 87.3 | 10.8 | 77.3 | 55% | 83% | 65% | 0% | 25% | 0% | 100% | 120% | 129% | 12.5% | 82.5% | 2.5% | melting point: 104 to 105 °C; Appearance of soft rot [6]: 49%
4 | O=C1NCC(=O)N2CCCC12 (stereo not drawn) [Compound No. 29, hexahydropyrrolo[1,2-a]pyrazin-1,4-dione] | 0.8 | 51.3 | 5.0 | 35.8 | 10.0 | 55.5 | 5.0 | 87.0 | 43% | 63% | 90% | 0% | 0% | 0% | 100% | 120% | 115% | 27.5% | 0% | 0% | Appearance of soft rot [6]: 14%; Inhibitory effect against soft rot in Chinese cabbage (in words) ([6]; Table 11, FIG. 10): very superior inhibitory effect
